Experiments:
[1] = Growth inhibition of human KKU-M213 cells after 72 hrs by SRB assay; type: functional; conditions: KKU-M213, 72 h, read-out: ED50 (the source's name)
A549 = experiment: Growth inhibition of human A549 cells after 72 hrs by SRB assay; type: functional; conditions: A549, 72 h, read-out: ED50 (the source's name)
HT-29 = experiment: Growth inhibition of human HT-29 cells after 72 hrs by SRB assay; type: functional; conditions: HT-29, 72 h, read-out: ED50 (the source's name)
MCF7 = experiment: Growth inhibition of human MCF7 cells after 72 hrs by SRB assay; type: functional; conditions: MCF7, 72 h, read-out: ED50 (the source's name)
HuCC-A1 = experiment: Growth inhibition of human HuCCa1 cells after 72 hrs by SRB assay; type: functional; conditions: HuCC-A1, 72 h, read-out: ED50 (the source's name)
KB = experiment: Growth inhibition of human KB cells after 72 hrs by SRB assay; type: functional; conditions: read-out: ED50 (the source's name)
[2] = Growth inhibition of human HEK293 cells after 72 hrs by SRB assay; type: cell-based; conditions: read-out: ED50
[3] = Growth inhibition of human KKU100 cells after 72 hrs by SRB assay; type: functional; conditions: KKU100, 72 h, read-out: ED50 (the source's name)
P388 = experiment: Growth inhibition of mouse P388 cells after 72 hrs by SRB assay; type: functional; conditions: P388, 72 h, read-out: ED50 (the source's name)
[4] = Growth inhibition of rat ASK cells after 72 hrs by SRB assay; type: functional; conditions: read-out: ED50 (the source's name)

| Structure (SMILES) | EC50 [1] | EC50 (A549) | EC50 (HT-29) | EC50 (MCF7) | EC50 (HuCC-A1) | EC50 (KB) | GI50 at 72 h [2] | EC50 [3] | EC50 (P388) | EC50 [4] |
| --- | --- | --- | --- | --- | --- | --- | --- | --- | --- | --- |
| C[C@]1(CO)[C@H]2CC[C@@]3(CO3)[C@@H](/C=C/C3=CCOC3=O)[C@]2(C)CC[C@H]1O | > 50 µM | > 50 µM | > 50 µM | > 50 µM | > 50 µM | > 50 µM | > 50 µM | > 50 µM | > 50 µM | > 50 µM |
| C=C1CC[C@@H]2[C@](C)(COC(C)=O)[C@H](O)CC[C@@]2(C)[C@@H]1/C=C/C1=CCOC1=O | > 50 µM | 32.8 µM | 45 µM | 31.1 µM | > 50 µM | 25.7 µM | 27.8 µM | 40.2 µM | 27.7 µM | > 50 µM |
| C=C1CC[C@@H]2[C@](C)(COC(C)=O)[C@H](OC(C)=O)CC[C@@]2(C)[C@@H]1/C=C/C1=CCOC1=O | 37.3 µM | 34 µM | 41.9 µM | 28.8 µM | 40.9 µM | 25.7 µM | 25 µM | > 50 µM | 27.7 µM | 42.5 µM |
| C=C1CC[C@@H]2[C@](C)(CO)[C@H](O)CC[C@@]2(C)[C@@H]1/C=C/C1=CCOC1=O | > 50 µM | 28.2 µM | 28.6 µM | 18.7 µM | 35.8 µM | 5.07 µM | 7.53 µM | 36.9 µM | 35 µM | > 50 µM |
| C[C@]1(COC(c2ccccc2)(c2ccccc2)c2ccccc2)[C@H]2CC[C@@]3(CO3)[C@@H](/C=C/C3=CCOC3=O)[C@]2(C)CC[C@H]1O | 4.68 µM | 5.88 µM | 6.21 µM | 5.38 µM | 7.81 µM | 4.92 µM | 5.39 µM | 28.8 µM | 3.33 µM | 6.47 µM |
| CC(C)(C)[Si](OC[C@@]1(C)[C@H]2CC[C@@]3(CO3)[C@@H](/C=C/C3=CCOC3=O)[C@]2(C)CC[C@H]1O)(c1ccccc1)c1ccccc1 | 3.08 µM | 6.22 µM | 4.43 µM | 4.23 µM | 6.41 µM | 4.02 µM | 4.97 µM | 3.27 µM | 4.13 µM | 6.81 µM |
| CC(=O)OC[C@@]1(C)[C@H]2CC[C@@]3(CO3)[C@@H](/C=C/C3=CCOC3=O)[C@]2(C)CC[C@H]1O | 48.9 µM | 46.3 µM | 48.9 µM | 43.5 µM | > 50 µM | > 50 µM | 38.1 µM | > 50 µM | 20 µM | > 50 µM |
| C=C1CC[C@@H]2[C@](C)(COC(c3ccccc3)(c3ccccc3)c3ccccc3)[C@H](O)CC[C@@]2(C)[C@@H]1/C=C/C1=CCOC1=O | 5.42 µM | 6.79 µM | 8.38 µM | 4.86 µM | 7.78 µM | 4.94 µM | 4.68 µM | 36.2 µM | 3.87 µM | 7.45 µM |
| CC(=O)O[C@@H]1CC[C@]2(C)[C@H](CC[C@@]3(CO3)[C@H]2/C=C/C2=CCOC2=O)[C@]1(C)CO[Si](C)(C)C(C)(C)C | 19.1 µM | 24.1 µM | 18.6 µM | 16.6 µM | 23.4 µM | 25.8 µM | 18.1 µM | 16.4 µM | 7.45 µM | 22.4 µM |
| C=C1CC[C@@H]2[C@](C)(CO[Si](C)(C)C(C)(C)C)[C@H](OC(C)=O)CC[C@@]2(C)[C@@H]1/C=C/C1=CCOC1=O | 12.1 µM | 9.18 µM | 12.8 µM | 6.37 µM | 16 µM | 4.94 µM | 6.36 µM | 14 µM | 6.56 µM | 16.2 µM |
| C=C1CC[C@@H]2[C@](C)(CO[Si](C(C)C)(C(C)C)C(C)C)[C@H](O)CC[C@@]2(C)[C@@H]1/C=C/C1=CCOC1=O | 7.06 µM | 7.95 µM | 7.14 µM | 5.46 µM | 6.72 µM | 4.7 µM | 5.28 µM | 18.2 µM | 5.96 µM | 7.35 µM |

Reference: ChEMBL document CHEMBL4177652, “Synthesis of 14-deoxy-11,12-didehydroandrographolide analogues as potential cytotoxic agents for cholangiocarcinoma” (Bioorg Med Chem Lett, 2017)
